Experimental data from BindingDB's records for patent US20240342186 (Boehringer Ingelheim International, 2024).

What follows are compounds tested against Cyclic GMP-AMP synthase (Homo sapiens, UniProt Q8N884) (assay: Biochemical (In Vitro) Assay).
Chain of Cyclic GMP-AMP synthase (Q8N884 whole entry): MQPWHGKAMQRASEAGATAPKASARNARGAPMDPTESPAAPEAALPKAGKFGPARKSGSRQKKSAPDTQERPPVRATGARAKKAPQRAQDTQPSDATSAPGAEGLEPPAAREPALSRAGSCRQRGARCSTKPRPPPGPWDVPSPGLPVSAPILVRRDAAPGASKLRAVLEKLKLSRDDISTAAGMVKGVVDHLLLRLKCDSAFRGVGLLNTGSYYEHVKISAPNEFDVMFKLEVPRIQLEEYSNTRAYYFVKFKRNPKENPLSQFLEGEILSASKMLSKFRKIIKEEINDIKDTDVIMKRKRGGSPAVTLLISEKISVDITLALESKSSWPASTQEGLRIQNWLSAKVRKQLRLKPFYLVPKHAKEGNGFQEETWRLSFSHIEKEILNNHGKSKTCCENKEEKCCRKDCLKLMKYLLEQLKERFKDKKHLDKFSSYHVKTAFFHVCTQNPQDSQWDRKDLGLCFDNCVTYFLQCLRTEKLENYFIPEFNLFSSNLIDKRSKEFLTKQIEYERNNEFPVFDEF

| Compound | IC50 |
| --- | --- |
| CC1(C#N)CCCN(c2cc(Cl)cnc2O[C@H]2C[C@@H](C(=O)O)N(c3nc(C(F)F)nc4c3oc3ccccc34)C2)C1 (stereo partly drawn) [US20240342186, Example 1.04] | 6 nM |
| O=C(O)[C@@H]1C[C@H](Oc2ncc(Br)cc2N2CCOC3(COC3)C2)CN1c1nc(C(F)F)nc2c1oc1ccccc12 [US20240342186, Example 1.24] | 9 nM |
| C#Cc1cnc(O[C@H]2C[C@@H](C(=O)O)N(c3nc(C(F)F)nc4c3oc3ccccc34)C2)c(N2CCOC3(COC3)C2)c1 [US20240342186, Example 1.25] | 4 nM |
